One data set has as its system HepG2 cell line. As to the kind of experiment: Oleic acid-induced fat accumulation, Oil-Red O staining. The format is cell-based. To be noted: for fat accumulation inhibitory effect: HepG2 treated with oleic acid, Oil-Red O. The method, then: By treating the HepG2 cell line, a liver cancer cell line, with oleic acid, fat accumulation was induced into cells, and simultaneously, JPI-289 was treated together to identify the effect of JPI-289 on inhibiting fat accumulation using the Oil-Red O staining method. Herein, INT-747, a drug that succeeded in phase 3 clinical trials for NASH indication, was treated as a positive control group.

Data set [1] deals with MCF7, PC3, and HL60 cell lines. Briefly: MTT analysis of JPI-289 toxicity in multiple cell lines. It is filed as cell-based. The method, then:
To identify the toxicity of JPI-289 to cells, MTT analysis was performed using three cell lines: MCF7, PC3, and HL60 (indicated as Cell 1 to Cell 3 in FIG. 1, respectively). Specifically, each cell line was treated with a control group, a DMSO control group (vehicle control), and JPI-289 (10-ethoxy-8-(morpholinomethyl)-2,3,4,6-tetrahydrobenzo[h][1,6]naphthyridin-5(1H)-one dihydrochloride dihydrate) at concentrations of 0.5, 1, 5, 10, 20, and 40 uM, and then treated with MTT tetrazolium after 24, 48, and 72 hours. Then, the cell viability was measured by forming formazan crystals, dissolving the same using DMSO (dimethyl sulfoxide), and measuring the absorbance using an ELISA reader.

A further data set relates to 3T3L1 cell line. Briefly: MTT analysis of JPI-289 toxicity in preadipocyte cell line. The format is cell-based, mouse. To be noted: 0.05 to 5 uM for 24, 48, or 72 hours. The method, then:
The 3T3L1 cell line, a preadipocyte cell line, was dispensed in a 96-well plate, and treated with JPI-289 at a concentration of 0.05 to 5 uM for 24, 48, or 72 hours, and MTT analysis was performed.

Data set [2] relates to mouse preadipocyte cell line 3T3L1. Briefly: Adipocyte differentiation / fat accumulation, Oil-Red O staining. To be noted: for differentiation into adipocytes: 3T3L1, Oil-Red O. It is filed as cell-based. The method, then:
To induce differentiation of mouse preadipocyte cell line 3T3L1 into adipocytes, DMEM medium containing 10% FBS was treated with insulin, dexamethasone, and isobutylmetylxanthin (IBMX). JPI-289 was treated with a differentiation medium from the start day of inducing differentiation into adipocytes to the end of differentiation. At the end of differentiation, cells were fixed and differentiated adipocytes were stained red using Oil-Red O. The degree of staining was recorded in a photograph, Oil Red was dissolved, and the O.D. value was measured using an ELISA reader.
To identify the inhibitory effect of JPI-289 at a concentration of 5 uM or less on adipocyte differentiation, a re-experiment was performed on the 3T3L1 cell line. Specifically, JPI-289s at concentrations of 0.05, 0.1, 0.25, 0.5, 1, and 2.5 uM were treated together with the differentiation culture medium, respectively, to induce differentiation into adipocytes, and the differentiation into adipocytes and fat accumulation were identified by staining using Oil-Red O.
The fat accumulation inhibitory effects of other PARP inhibitors, 5-AIQ (10 uM), PJ34 (10 uM), and olaparib (5 uM), and JPI-289 (0.25 to 2.5 uM) were compared in the mouse preadipocyte cell line 3T3L1 by the method of Example 2 above.

The next data set deals with PARylation. Briefly: PARylation in Hep3B cells in NASH environment (H2O2, TCDD). The format is cell-based. To be noted: 10 uM, 24 hours, 300 uM H2O2, TCDD 10 nM, compared to PJ-34. The method, then:
(§1) A MOA study was conducted to identify the mechanism that has a more significant effect than other PARP inhibitors as in Example 3-1. Specifically, the Hep3B cell line was treated with 300 uM H2O2 for 2 hours to generate a ROS rich situation for NASH, and treated with TCDD (Tetrachlorodibenzo-p-dioxin) at 10 nM for 24 hours to induce overexpression of TIPARP. Then, PARylation was identified, and the influences of JPI-289 (10 uM and 24 hours) and PJ34 (10 uM and 24 hours) were identified, respectively. In addition, DMOG, which induces hypoxia by inhibiting the degradation of HIF-1α, a hypoxia-related gene that appears in the early stages of fibrosis, was treated at 1 mM for 24 hours, and the influences of JPI-289 (10 uM and 24 hours) and PJ34 (10 uM and 24 hours) were also identified. In addition, as a positive control group, it was compared with INT-747, a drug that successfully completed phase 3 clinical trials for NASH indication.

Another data set concerns TIPARP. As to the kind of experiment: TIPARP expression in Hep3B cells upon TCDD. The format is cell-based. To be noted: for expression of TIPARP: 10 uM, 24 hours, upon TCDD administration (FIG. 7B). The method, then:
as §1

For data set [3], the system named is HIF-1α. Briefly: HIF-1α expression in Hep3B cells upon DMOG. It is filed as cell-based. Conditions: 10 uM, 24 hours, DMOG 1 mM. The method, then:
as §1

Another data set has as its system PARP1. As to the kind of experiment: PARP1 expression in Hep3B cells upon TCDD. It is filed as cell-based. To be noted: compared to INT-747-treated group. The procedure:
as §1

Another data set deals with vimentin. As to the kind of experiment: Vimentin expression in Hep3B cells upon TCDD. The format is cell-based. To be noted: compared to INT-747-treated group. The procedure: as §1
The subject of data set [4] is HIF-1α. As to the kind of experiment: HIF-1α expression in liver of high-fat diet mice, tissue immunochemical analysis. To be noted: JPI-289 50 mpk for 6 weeks, compared to PJ34 (10 mpk) or INT-747 (10 mpk). It is filed as in vivo. The procedure:
To identify the HIF-1 inhibitory effect of INT-747 and JPI-289 in Example 4-1 also in vivo, 5-week-old mice were placed on a high-fat diet (HFD) 1 week after introduction. After 6 weeks, JPI-289 (50 mpk), PJ34 (10 mpk), and INT-747 (10 mpk) were administered for a total of 6 weeks, respectively, and the level of HIF-1α expression in the liver was identified by tissue immunochemical analysis.

In another data set the test system is TGF-beta2. Briefly: TGF-beta2 inhibition at RNA level in Hep3B cells. The format is cell-based. Conditions: compared to INT-747. The method, then: as §1
The inhibitory effects of TGF-beta2 (a downstream signal of HIF-1) by JPI-289 and INT-747 in Hep3B cell line were compared at the RNA level under the same conditions as in Example 4-1.

Data set [5] deals with high-fat diet mouse model. Briefly: High-fat diet animal model: body weight, liver size and weight. It is filed as in vivo. Conditions: 6 weeks; for liver size and weight: compared to high-fat diet group. The method, then: A high-fat diet animal model was created, and after 6 weeks, JPI-289 (JPI) and a positive control group of INT-747 (INT) were administered for a total of 6 weeks (FIG. 12), and body weight, liver size, and weight were checked. As a result, weight loss was identified in the group administered 50 mpk of JPI-289 compared to the high-fat diet group and the INT-747 administration group (FIG. 13). In addition, compared to the high-fat diet group, liver size and weight were decreased in the JPI-289 10 mpk administration group, JPI-289 50 mpk administration group, and INT-747 10 mpk administration group.

Data set [6] has as its system STAM™ mouse model. As to the kind of experiment: STAM mouse model, short-term (3 weeks) administration. The format is in vivo. The method, then: Streptozotocin was administered on the second day after birth, and a high-fat diet was administered starting 4 weeks after birth, causing non-alcoholic steatohepatitis (NASH) at 7 to 8 weeks of age. To identify the effect of JPI-289 on NASH and early fibrosis in the STAM™ mouse model (FIG. 15) in which fibrosis is induced by steatohepatitis at 9 to 12 weeks, the drug was administered at 10 mg/kg and 50 mg/kg, respectively for a total of 3 weeks, from 6 to 9 weeks, and the fibrosis-induced area was identified (FIG. 16).
JPI-289 was administered as in Example 6-1, and the NAFLD score and ballooning score were identified as values for evaluating fatty liver.

Data set [7] concerns STAM™ mouse model. Briefly: STAM mouse model, long-term (6 weeks) administration. The format is in vivo. The procedure: After administering JPI-289 (10 mg/kg) for a total of 6 weeks from 6 to 12 weeks in the same manner as in Example 6 (FIG. 19), the fibrosis area was checked.
After administering JPI-289 (10 mg/kg) for a total of 6 weeks from 6 to 12 weeks in the same manner as in Example 6, the NAFLD score and ballooning score were checked to identify the degree of inhibition of fatty liver.

Setting [8] is: 10 mg/kg, 6 weeks, compared to control group.

This is an account of results in US20240216384A1, “COMPOSITION FOR PREVENTING OR TREATING METABOLIC DISEASES, CONTAINING TRICYCLO DERIVATIVE COMPOUND” (ONCOCROSS CO.,LTD., priority 2021, published 2024).

Counter-ions that a name gives are not always drawn.

As to `CC[C@H]1[C@@H](O)[C@@H]2[C@H](CC[C@]3(C)[C@@H]([C@H](C)CCC(=O)O)CC[C@@H]23)[C@@]2(C)CC[C@@H](O)C[C@@H]12` [INT-747, reference compound], in the data set with HepG2 cell line, the “fat accumulation inhibitory effect” value is “about 13%”.
Turning to `CCOc1cc(CN2CCOCC2)cc2[nH]c(=O)c3c(c12)NCCC3` [JPI-289, 10-ethoxy-8-(morpholinomethyl)-2,3,4,6-tetrahydrobenzo[h][1,6]naphthyridin-5(1H)-one dihydrochloride dihydrate], the “toxicity to cells (MTT cell viability)” value is listed as “toxic” in data set [1] (concentrations of 20 and 40 uM); “not toxic” in data set [1] (up to a concentration of 10 uM, for 72 hours). For the same compound, the “toxicity (MTT analysis)” value in the data set with 3T3L1 cell line is reported as “no significant effect”. For the same compound, the fat accumulation decrease result in data set [2] (250 nM (0.25 uM), 3T3L1) is on record as “about 37%”. Also, the differentiation into adipocytes result in data set [2] (5 uM or higher) and in data set [2] (0.05 to 2.5 uM) was “inhibited depending on the concentration” throughout. Besides, the “fat accumulation in 3T3L1 cells” value in data set [2] (5 uM or higher, Oil-Red O) is “significantly decreased”. For the same compound, the “fat accumulation inhibitory effect compared to olaparib 5 uM” value in data set [2] (JPI-289 2.5 uM, 3T3L1) is listed as “similar”. In data set [2] (JPI-289 0.25 to 2.5 uM, 3T3L1), the “fat accumulation inhibitory effect compared to 5-AIQ (10 uM) and PJ34 (10 uM)” value is on record as “significantly superior”. The inhibition at 0.05 µM in data set [2] (Mus musculus, 3T3-L1, 50 nM (0.05 uM), 3T3L1, read-out: differentiation inhibitory effect) is approximately 15%. Moreover, the “concentration dependence of fat accumulation inhibition” value in the data set on HepG2 cell line (HepG2, high concentrations) is listed as “more effective at high concentrations”. In addition, in the data set with HepG2 cell line, the “fat accumulation inhibitory effect” value is “about 21%”. Also, the PARylation result in the data set on PARylation is on record as “significantly inhibited”. The “expression of TIPARP” value in the data set on TIPARP was “significantly increased”. Moreover, the TIPARP result in the data set on TIPARP (upon TCDD, compared to INT-747-treated group (FIG. 8)) was “increased”. In addition, in the data set with HIF-1α [3], the “expression of HIF-1α” value is “significantly decreased”. Besides, the “expression of PARP1” value in the data set with PARP1 is on record as “significantly decreased”. Further, in the data set with vimentin, the “expression of vimentin, a fibrosis marker” value is given as “decreased”. In addition, in the data set on HIF-1α [4], the “HIF-1α expression in the liver” value is given as “significantly decreased”. In addition, the “TGF-beta2 at the RNA level” value with TGF-beta2 is recorded as “significantly inhibited”. Besides, the entries for the “liver size and weight” value in [5] (10 mpk) and in [5] (50 mpk) were “decreased” and “significant decrease”, respectively. Moreover, the body weight entry in [5] (50 mpk, compared to high-fat diet group and INT-747 group) is listed as “weight loss”. Besides, the NAFLD score result in the data set with STAM™ mouse model [6] (10 mg/kg and 50 mg/kg, 3 weeks) was “decrease”; with STAM™ mouse model [7] (setting [8]), “significantly decreased”. In addition, the ballooning score result was “decrease” in the data set with STAM™ mouse model [6] (10 mg/kg and 50 mg/kg, 3 weeks); “decreased” with STAM™ mouse model [7] (setting [8]). Moreover, the fibrosis area result in the data set with STAM™ mouse model [6] (10 mg/kg and 50 mg/kg, 3 weeks (6 to 9 weeks of age)) is reported as “significantly decreased”; with STAM™ mouse model [7] (10 mg/kg, 6 weeks (6 to 12 weeks), compared to Vehicle) it was “significantly decreased”. Besides, the “overall effect versus control group” value in the data set with STAM™ mouse model [6] (administered for 3 weeks, all dose groups) is given as “more effective than the control group”; in the data set with STAM™ mouse model [7] (low dose for 6 weeks), “superior effect compared to the control group”.
On to `CN(C)CC(=O)Nc1ccc2[nH]c(=O)c3ccccc3c2c1` [PJ34, reference compound], for which the “expression of TIPARP” value with TIPARP is reported as “almost no increase”. Also, in the data set with HIF-1α [3], the “expression of HIF-1α” value is given as “did not decrease”.
